The text below walks through data of US11124499B2, “Pharmaceutical composition derived from Tecoma plant and a method for treating cancer” (National Guard Health Affairs, priority 2018, dated 2021).

The test system of one data set is MOLM-13. Nature of the data set: MTT cytotoxicity, MOLM-13. In kind it is cell-based. The note with it: MOLM-13, human acute monocytic leukemia, 12 h exposure, mean±SD of three trials. The protocol: (§1) The cytotoxicity of Tecomaphorbide was tested against various cultured cell lines. Cells were exposed to various concentrations of Tecomaphorbide (ranging from 0.0 to 4.0 μM) for 12 h. Subsequently, the exposed cells were incubated with MTT reagent for 4 h and the developed color was analyzed spectrophotometrically. IC50 was determined from the sigmoidal curve of blotting percentage of cell viability versus the logarithm of concentration in μM using Graphpad Prism 6 program. The determined values summarized in Table 2 are the mean±SD value obtained from three independent trials.

A further data set deals with normal primary T-cells. Nature of the data set: Apoptosis in normal primary T-cells (FIG. 2). In kind it is cell-based, human. The source says:
(§2) FIG. 2 is a bar graph summarizing the effect of compound Tecomaphorbide on apoptosis in human acute leukemia T-cells (Jurkat cells) and normal primary T-cells.

Another data set relates to Caco-2. Nature of the data set: MTT cytotoxicity, Caco-2. In kind it is cell-based. The settings on record: Caco-2, human colorectal adenocarcinoma, 12 h exposure, mean±SD of three trials. The protocol:
as §1

The next data set concerns MCF-7. Nature of the data set: MTT cytotoxicity, MCF-7. In kind it is cell-based. The settings on record: MCF7, MCF-7, human breast adenocarcinoma, 12 h exposure, mean±SD of three trials. The protocol: as §1
The subject of a further data set is Jurkat. Nature of the data set: MTT cytotoxicity, Jurkat. The note with it: human acute T cell leukemia, 12 h exposure, mean±SD of three trials. In kind it is cell-based. The method, then:
as §1

Another data set deals with U937. Nature of the data set: MTT cytotoxicity, U937. In kind it is cell-based. The settings on record: U-937, U937, human histiocytic lymphoma, 12 h exposure, mean±SD of three trials. The method, then: as §1
Data set [1] relates to T-Cell Acute lymphocytic leukemia cell line (Jurkat). Nature of the data set: Apoptosis in Jurkat cells (FIG. 2). In kind it is cell-based, human.
Text: as §2

The next data set deals with K562. Nature of the data set: MTT cytotoxicity, K562. In kind it is cell-based. The settings on record: K562, human chronic myelogenous leukemia, 12 h exposure, mean±SD of three trials. The protocol:
as §1

The next data set has as its system MV4-11. Nature of the data set: MTT cytotoxicity, MV4-11. In kind it is cell-based. The settings on record: MV4-11, human B myelomonocytic leukemia, 12 h exposure, mean±SD of three trials. The method, then:
as §1

The next data set has as its system PC-3. Nature of the data set: MTT cytotoxicity, PC-3. In kind it is cell-based. The note with it: PC-3, human prostate adenocarcinoma, 12 h exposure, mean±SD of three trials. The protocol: as §1
For another data set, the system named is HL-60. Nature of the data set: MTT cytotoxicity, HL-60. In kind it is cell-based. The settings on record: HL-60, human acute promyelocytic leukemia, 12 h exposure, mean±SD of three trials. The method, then: as §1

For the molecule `C=Cc1c(C=O)c2cc3nc(c4c5[nH]c(cc6nc(cc1[nH]2)C(C)=C6CC)c(C)c5C(=O)C4C(=O)OCC)C(CCC(=O)OC)C3C` (centres unmarked) [Tecomaphorbide], the IC50 in the data set with MOLM-13 was found to be 580 ± 170 nM; with Caco-2, 2830 ± 620 nM; with MCF-7, 2660 ± 480 nM; with Jurkat, 1210 ± 240 nM; with U937, 1380 ± 320 nM; in the data set on K562, 1530 ± 190 nM. Also, the figures for the IC50 in the data set on MV4-11, in the data set with PC-3 and in the data set on HL-60 were 620 ± 140 nM, 1940 ± 350 nM and 460 ± 110 nM, respectively. Besides, the figures for the effect on apoptosis result (in the data set on normal primary T-cells; in data set [1]) were “minimal impact” and “able to induce apoptosis”, respectively.
